The target in assay [1] is T1, baculovirus-expressed ALK (Homo sapiens, UniProt Q9UM73).
T1 construct: host or cells: baculovirus expression system
In words: ALK Kinase Assay (ELISA-type, time-resolved fluorescence). The assay is classed as biochemical. To be noted: ALK kinase inhibition, 1 μM ATP; read-out: ALK Activity. Put shortly: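 Plates coated with phospholipase C-γ substrate (10 μg/mL in TBS); reaction started with 30 ng/ml ALK and run 15 min at 37° C. Phosphorylated substrate detected with Eu-N1-labeled PT66 antibody. IC50 from sigmoidal variable-slope fit of percent inhibition vs log concentration.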
For orientation: ELISA stands for enzyme-linked immunosorbent assay.

Assay [2] addresses T2, c-Met (cytoplasmic domain) (Homo sapiens, UniProt P08581).
T2 construct: 10 ng/mL c-Met (cytoplasmic domain, Invitrogen Corporation #PV3143); purchased Invitrogen Corporation PV3143
Nature of the assay: c-Met Kinase Assay (same methods as for ALK, with modifications). The assay is classed as biochemical. To be noted: c-Met kinase inhibition, 1 μM ATP; read-out: cMet Activity. Summed up:
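Europium-labeled PT66 antibody (Eu-N1) detects substrate phosphorylation on wells coated with phospholipase C-γ at 10 μg/mL. The kinase, the cytoplasmic domain of c-Met at 10 ng/mL, starts the reaction, which proceeds 15 minutes at 37° C.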

Structures are written as SMILES. Some results are limits rather than exact numbers.

T2 sequence (P08581 956-1390 limits assumed): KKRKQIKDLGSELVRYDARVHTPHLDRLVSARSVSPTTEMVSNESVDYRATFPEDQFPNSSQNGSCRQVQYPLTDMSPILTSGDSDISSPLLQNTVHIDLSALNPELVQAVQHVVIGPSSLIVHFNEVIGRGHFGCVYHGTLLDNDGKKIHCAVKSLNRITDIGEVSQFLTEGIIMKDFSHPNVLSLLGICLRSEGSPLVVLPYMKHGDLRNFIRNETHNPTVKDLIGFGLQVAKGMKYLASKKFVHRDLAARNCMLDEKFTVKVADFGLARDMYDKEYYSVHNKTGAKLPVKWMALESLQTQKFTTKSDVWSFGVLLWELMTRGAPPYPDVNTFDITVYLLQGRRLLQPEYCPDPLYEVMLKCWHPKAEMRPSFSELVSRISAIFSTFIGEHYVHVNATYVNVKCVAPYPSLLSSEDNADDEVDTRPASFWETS
T1 sequence (Q9UM73 19-1620): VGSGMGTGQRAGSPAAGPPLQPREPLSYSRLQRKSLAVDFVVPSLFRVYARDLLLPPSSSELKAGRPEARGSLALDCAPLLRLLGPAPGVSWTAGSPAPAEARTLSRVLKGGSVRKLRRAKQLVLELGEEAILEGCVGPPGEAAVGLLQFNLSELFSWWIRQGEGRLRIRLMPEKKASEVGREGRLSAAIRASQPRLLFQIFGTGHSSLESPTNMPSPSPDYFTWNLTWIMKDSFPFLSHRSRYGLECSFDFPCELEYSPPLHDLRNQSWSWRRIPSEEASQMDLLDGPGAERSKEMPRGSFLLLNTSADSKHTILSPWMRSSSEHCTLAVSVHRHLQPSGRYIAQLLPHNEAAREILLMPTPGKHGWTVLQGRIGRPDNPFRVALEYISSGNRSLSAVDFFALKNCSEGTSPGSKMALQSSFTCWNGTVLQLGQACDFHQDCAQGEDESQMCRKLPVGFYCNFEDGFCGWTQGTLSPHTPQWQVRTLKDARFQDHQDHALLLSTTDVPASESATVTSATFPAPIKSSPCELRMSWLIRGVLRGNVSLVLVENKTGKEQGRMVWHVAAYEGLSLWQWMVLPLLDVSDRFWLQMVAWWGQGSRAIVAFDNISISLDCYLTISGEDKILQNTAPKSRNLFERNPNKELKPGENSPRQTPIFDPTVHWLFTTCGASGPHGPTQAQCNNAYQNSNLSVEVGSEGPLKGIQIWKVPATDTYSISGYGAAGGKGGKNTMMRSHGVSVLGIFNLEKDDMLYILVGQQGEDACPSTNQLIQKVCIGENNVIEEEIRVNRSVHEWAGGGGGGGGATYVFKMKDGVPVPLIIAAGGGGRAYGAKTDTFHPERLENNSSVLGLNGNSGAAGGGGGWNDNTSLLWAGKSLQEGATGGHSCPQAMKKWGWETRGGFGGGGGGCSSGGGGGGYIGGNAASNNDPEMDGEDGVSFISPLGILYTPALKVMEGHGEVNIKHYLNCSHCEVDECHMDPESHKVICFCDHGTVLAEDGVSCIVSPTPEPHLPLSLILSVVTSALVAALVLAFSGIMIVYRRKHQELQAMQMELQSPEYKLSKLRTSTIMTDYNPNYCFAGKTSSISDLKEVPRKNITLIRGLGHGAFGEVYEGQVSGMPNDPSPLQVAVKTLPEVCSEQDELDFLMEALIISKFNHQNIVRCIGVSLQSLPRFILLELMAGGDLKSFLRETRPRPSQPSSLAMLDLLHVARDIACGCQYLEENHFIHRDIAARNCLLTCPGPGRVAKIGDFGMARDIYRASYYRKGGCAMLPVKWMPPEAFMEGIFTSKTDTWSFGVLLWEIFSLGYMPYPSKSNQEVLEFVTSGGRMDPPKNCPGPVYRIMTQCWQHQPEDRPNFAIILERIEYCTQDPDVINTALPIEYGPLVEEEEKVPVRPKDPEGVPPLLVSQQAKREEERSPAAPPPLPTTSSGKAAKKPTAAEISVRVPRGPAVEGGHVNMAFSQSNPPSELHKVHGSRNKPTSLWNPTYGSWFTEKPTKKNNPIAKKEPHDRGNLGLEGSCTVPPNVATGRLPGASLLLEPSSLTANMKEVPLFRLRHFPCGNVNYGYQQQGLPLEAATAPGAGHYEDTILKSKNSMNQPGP

On to `COc1cc2c(cc1Nc1ncc(Cl)c(N[C@H]3[C@@H](C(N)=O)[C@@H]4C=C[C@H]3C4)n1)CCN(C[C@@H](C)O)CC2` [Example 1559, (1S,2S,3R,4R)-3-{5-Chloro-2-[3-((R)-2-hydroxy-propyl)-8-methoxy-2,3,4,5-tetrahydro-1H-3-benzazepin-7-ylamino]-pyrimidin-4-ylamino}-bicyclo[2.2.1]hept-5-ene-2-carboxylic acid amide], for which the IC50 in assay [1] was below 100 nM; in assay [2], above 10000 nM.

With `COc1cc2c(cc1Nc1ncc(Cl)c(N[C@H]3[C@@H](C(N)=O)[C@@H]4C=C[C@H]3C4)n1)CCN(CC(C)(C)O)CC2` [Example 1560, (1S,2S,3R,4R)-3-{5-Chloro-2-[3-(2-hydroxy-2-methyl-propyl)-8-methoxy-2,3,4,5-tetrahydro-1H-3-benzazepin-7-ylamino]-pyrimidin-4-ylamino}-bicyclo[2.2.1]hept-5-ene-2-carboxylic acid amide], the IC50 was below 100 nM in assay [1] and above 10000 nM in assay [2].

As to `COc1cc2c(cc1Nc1ncc(Cl)c(Nc3ccccc3S(=O)(=O)N3CC[C@@H](O)C3)n1)CCN(CC(C)(C)O)CC2` [Example 1561, (R)-1-(2-{5-Chloro-2-[3-(2-hydroxy-2-methyl-propyl)-8-methoxy-2,3,4,5-tetrahydro-1H-3-benzazepin-7-ylamino]-pyrimidin-4-ylamino}-benzenesulfonyl)-pyrrolidin-3-ol], the IC50 in assay [1] was below 100 nM; in assay [2], 1000 to 10000 nM.

Consider `COc1cc2c(cc1Nc1ncc(Cl)c(Nc3ccccc3S(=O)(=O)N3CC[C@H](O)C3)n1)CCN(CC(C)(C)O)CC2` [Example 1562, (S)-1-(2-{5-Chloro-2-[3-(2-hydroxy-2-methyl-propyl)-8-methoxy-2,3,4,5-tetrahydro-1H-3-benzazepin-7-ylamino]-pyrimidin-4-ylamino}-benzenesulfonyl)-pyrrolidin-3-ol], for which the IC50 in assay [1] was below 100 nM; in assay [2], 100 to 1000 nM.

Consider `COc1cc2c(cc1Nc1ncc(Cl)c(Nc3ccccc3S(=O)(=O)N(C)C)n1)CCN(CC(C)(C)O)CC2` [Example 1563, 2-{5-Chloro-2-[3-(2-hydroxy-2-methyl-propyl)-8-methoxy-2,3,4,5-tetrahydro-1H-3-benzazepin-7-ylamino]-pyrimidin-4-ylamino}-N,N-dimethyl-benzenesulfonamide], for which the figures for the IC50 in assay [1] and in assay [2] were below 100 nM and 1000 to 10000 nM, respectively.

Take `CN1C(=O)CCC(C)(C)c2cc(Nc3ncc(Cl)c(N[C@H]4[C@@H](C(N)=O)[C@@H]5C=C[C@H]4C5)n3)ccc21` [Example 1571, (1S,2S,3R,4R)-3-[5-Chloro-2-(1,5,5-trimethyl-2-oxo-2,3,4,5-tetrahydro-1H-benzo[b]azepin-7-ylamino)-pyrimidin-4-ylamino]-bicyclo[2.2.1]hept-5-ene-2-carboxylic acid amide]: the IC50 in assay [1] was below 100 nM; in assay [2], 100 to 1000 nM.

As to `CNC(=O)c1scc(C)c1Nc1nc(Nc2ccc3c(c2)C(C)(C)CCC(=O)N3)ncc1Cl` [Example 1572, 3-[5-Chloro-2-(5,5-dimethyl-2-oxo-2,3,4,5-tetrahydro-1H-benzo[b]azepin-7-ylamino)-pyrimidin-4-ylamino]-4-methyl-thiophene-2-carboxylic acid methyl amide], the IC50 in assay [1] and in assay [2] was 100 to 1000 nM in each case.

For `COc1cc(N2CCOCC2)ccc1Nc1nc(Nc2ccc3c(c2)C(C)(C)CCC(=O)N3C)ncc1Cl` [Example 1573, 7-[5-Chloro-4-(2-methoxy-4-morpholin-4-yl-phenylamino)-pyrimidin-2-ylamino]-1,5,5-trimethyl-1,3,4,5-tetrahydro-benzo[b]azepin-2-one], the IC50 was below 100 nM in assay [1] and 1000 to 10000 nM in assay [2].

Regarding `CCNC(=O)c1cccc(F)c1Nc1nc(Nc2ccc3c(c2)NC(=O)CCC3(C)C)ncc1Cl` [Example 1575, 2-[5-Chloro-2-(5,5-dimethyl-2-oxo-2,3,4,5-tetrahydro-1H-benzo[b]azepin-8-ylamino)-pyrimidin-4-ylamino]-N-ethyl-3-fluoro-benzamide], the IC50 in assay [1] and in assay [2] was below 100 nM in each case.

Turning to `Cc1cccc(C(N)=O)c1Nc1nc(Nc2ccc3c(c2)NC(=O)CCC3(C)C)ncc1Cl` [Example 1577, 2-[5-Chloro-2-(5,5-dimethyl-2-oxo-2,3,4,5-tetrahydro-1H-benzo[b]azepin-8-ylamino)-pyrimidin-4-ylamino]-3-methyl-benzamide], the IC50 lay in the range of 1000 to 10000 nM in assay [1] and 100 to 1000 nM in assay [2].

As for `CC1(C)CCC(=O)Nc2cc(Nc3ncc(Cl)c(Nc4ccccc4OCC#N)n3)ccc21` [Example 1578, {2-[5-Chloro-2-(5,5-dimethyl-2-oxo-2,3,4,5-tetrahydro-1H-benzo[b]azepin-8-ylamino)-pyrimidin-4-ylamino]-phenoxy}-acetonitrile], the results for the IC50 in assay [1] and in assay [2] were below 100 nM and 100 to 1000 nM, respectively.

Turning to `CCNC(=O)c1cccc(F)c1Nc1nc(Nc2ccc3c(c2)N(CC)C(=O)CCC3(C)C)ncc1Cl` [Example 1579, 2-[5-Chloro-2-(1-ethyl-5,5-dimethyl-2-oxo-2,3,4,5-tetrahydro-1H-benzo[b]azepin-8-ylamino)-pyrimidin-4-ylamino]-N-ethyl-3-fluoro-benzamide], the IC50 in assay [1] and in assay [2] was below 100 nM throughout.

On to `CCN1C(=O)CCC(C)(C)c2ccc(Nc3ncc(Cl)c(Nc4ccccc4OCC#N)n3)cc21` [Example 1580, {2-[5-Chloro-2-(1-ethyl-5,5-dimethyl-2-oxo-2,3,4,5-tetrahydro-1H-benzo[b]azepin-8-ylamino)-pyrimidin-4-ylamino]-phenoxy}-acetonitrile], for which the IC50 in assay [1] was below 100 nM; in assay [2] it was 100 to 1000 nM.

For `COCCN1C(=O)CCC(C)(C)c2ccc(Nc3ncc(Cl)c(Nc4ccccc4OCC#N)n3)cc21` [Example 1582, (2-{5-Chloro-2-[1-(2-methoxy-ethyl)-5,5-dimethyl-2-oxo-2,3,4,5-tetrahydro-1H-benzo[b]azepin-8-ylamino]-pyrimidin-4-ylamino}-phenoxy)-acetonitrile], the IC50 in assay [1] is below 100 nM; in assay [2], 100 to 1000 nM.

In the case of `COCCN1C(=O)CCC(C)(C)c2ccc(Nc3ncc(Cl)c(N[C@H]4[C@@H](C(N)=O)[C@@H]5C=C[C@H]4C5)n3)cc21` [Example 1583, (1S,2S,3R,4R)-3-{5-Chloro-2-[1-(2-methoxy-ethyl)-5,5-dimethyl-2-oxo-2,3,4,5-tetrahydro-1H-benzo[b]azepin-8-ylamino]-pyrimidin-4-ylamino}-bicyclo[2.2.1]hept-5-ene-2-carboxylic acid amide], the IC50 was below 100 nM in assay [1] and 100 to 1000 nM in assay [2].

`COCCN1C(=O)CCC(C)(C)c2ccc(Nc3ncc(Cl)c(Nc4ccc(N5CCOCC5)cc4OC)n3)cc21` [Example 1584, 8-[5-Chloro-4-(2-methoxy-4-morpholin-4-yl-phenylamino)-pyrimidin-2-ylamino]-1-(2-methoxy-ethyl)-5,5-dimethyl-1,3,4,5-tetrahydro-benzo[b]azepin-2-one]: the results for the IC50 in assay [1] and in assay [2] were below 100 nM and 1000 to 10000 nM, respectively.

As to `CNC(=O)c1ccccc1Nc1nc(Nc2ccc3c(c2)N(CCOC)C(=O)CCC3(C)C)ncc1Cl` [Example 1585, 2-{5-Chloro-2-[1-(2-methoxy-ethyl)-5,5-dimethyl-2-oxo-2,3,4,5-tetrahydro-1H-benzo[b]azepin-8-ylamino]-pyrimidin-4-ylamino}-N-methyl-benzamide], the IC50 was below 100 nM in assay [1] and 100 to 1000 nM in assay [2].

The values are drawn from patent US8148391B2 (Cephalon, Inc., priority 2006, dated 2012).
